Results: ChEMBL document CHEMBL6096630, “Enhancing therapeutic efficacy in homologous recombination-proficient pancreatic cancer via the combination of PARP1-PROTAC and a BRD4 inhibitor” (Bioorg Med Chem, 2024)
Active and inactive are the calls of the source. The rule behind the calls is not given here.

What was measured:
[1] = tested on: PANC-1; assay: Induction of cell cycle arrest in human PANC-1 cells assessed as decrease in CDK6 level at 2 uM incubated for 24 hrs in presence of JQ1 by […]; format: functional
[2] = target: Protein cereblon/Poly [ADP-ribose] polymerase 1 (Homo sapiens, UniProt P09874+Q96SW2); assay: PROTAC activity at CRBN/PARP1 in human BXPC-3 cells assessed as induction of PARP1 degradation incubated for 24 hrs by Western blot analysis relative to control; format: cell-based
Chain of Protein cereblon/Poly [ADP-ribose] polymerase 1 (P09874 2-1014 limits assumed): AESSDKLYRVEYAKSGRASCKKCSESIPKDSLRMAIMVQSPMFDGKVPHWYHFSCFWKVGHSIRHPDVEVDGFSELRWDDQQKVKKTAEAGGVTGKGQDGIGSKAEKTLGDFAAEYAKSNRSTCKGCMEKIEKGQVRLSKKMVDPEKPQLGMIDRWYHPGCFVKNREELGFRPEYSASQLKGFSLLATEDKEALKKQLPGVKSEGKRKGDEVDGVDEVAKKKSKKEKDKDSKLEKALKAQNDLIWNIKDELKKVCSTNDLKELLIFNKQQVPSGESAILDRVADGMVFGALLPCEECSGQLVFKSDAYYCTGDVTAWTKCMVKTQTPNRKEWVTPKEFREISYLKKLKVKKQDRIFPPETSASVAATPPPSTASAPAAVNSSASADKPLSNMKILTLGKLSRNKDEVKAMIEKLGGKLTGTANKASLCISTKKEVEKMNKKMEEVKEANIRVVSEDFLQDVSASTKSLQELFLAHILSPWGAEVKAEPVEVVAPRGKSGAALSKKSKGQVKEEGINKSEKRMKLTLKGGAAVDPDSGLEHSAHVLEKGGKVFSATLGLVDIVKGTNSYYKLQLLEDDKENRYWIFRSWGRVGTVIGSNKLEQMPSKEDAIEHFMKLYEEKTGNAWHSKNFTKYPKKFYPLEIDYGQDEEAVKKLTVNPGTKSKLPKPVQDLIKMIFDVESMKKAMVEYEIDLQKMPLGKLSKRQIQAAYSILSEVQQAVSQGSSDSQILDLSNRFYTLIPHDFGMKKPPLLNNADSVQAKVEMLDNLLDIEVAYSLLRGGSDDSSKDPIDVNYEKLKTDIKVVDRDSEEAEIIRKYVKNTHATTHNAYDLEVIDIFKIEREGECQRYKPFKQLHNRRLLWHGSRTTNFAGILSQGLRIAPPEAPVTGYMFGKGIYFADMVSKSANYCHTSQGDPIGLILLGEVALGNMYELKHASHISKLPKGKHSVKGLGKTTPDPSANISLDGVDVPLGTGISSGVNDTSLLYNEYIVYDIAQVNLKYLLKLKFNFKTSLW
Chain of Protein cereblon/Poly [ADP-ribose] polymerase 1 (Q96SW2 whole entry partner): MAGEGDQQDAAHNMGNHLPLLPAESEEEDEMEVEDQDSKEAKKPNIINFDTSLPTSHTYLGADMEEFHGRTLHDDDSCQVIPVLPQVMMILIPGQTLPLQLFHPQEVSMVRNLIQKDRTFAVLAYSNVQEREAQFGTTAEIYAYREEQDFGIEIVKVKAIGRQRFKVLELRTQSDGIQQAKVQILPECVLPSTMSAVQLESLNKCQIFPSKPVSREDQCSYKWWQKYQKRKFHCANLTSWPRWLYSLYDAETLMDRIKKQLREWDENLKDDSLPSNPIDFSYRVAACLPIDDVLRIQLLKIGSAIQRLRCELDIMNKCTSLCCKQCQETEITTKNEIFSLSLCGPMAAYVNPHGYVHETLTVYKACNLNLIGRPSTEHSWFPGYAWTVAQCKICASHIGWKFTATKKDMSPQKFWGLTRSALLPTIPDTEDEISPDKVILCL

[3] = tested on: PANC-1; assay: Induction of apoptosis in human PANC-1 cells assessed as viable cells at 1 uM incubated for 48 hrs by Annexin V-FITC/PI staining based flow cytometry (reference value: 91.64 %); format: functional; conditions: read-out: Activity
[4] = Toxicity in BALB/c mouse xenografted with human PANC-1 cells assessed as pathological changes in heart at 20 mg/kg, ip for 4 weeks administered for 5 days consecutively and 2 days without treatment on every week by H and E staining based analysis; format: organism-based; conditions: in vivo, 672 h
[5] = Toxicity in BALB/c mouse xenografted with human PANC-1 cells assessed as body weight loss at 20 mg/kg, ip for 4 weeks administered for 5 days consecutively and 2 days without treatment on every week; format: organism-based; conditions: in vivo, 672 h
[6] = tested on: PANC-1; assay: Induction of cell cycle arrest in human PANC-1 cells assessed as accumulation at G1/S phase at 0.12 to 2 uM incubated for 24 hrs by PI staining based flow cytometry; format: functional; conditions: dose 0.12-2 µM
[7] = Toxicity in BALB/c mouse xenografted with human PANC-1 cells assessed as pathological changes in liver at 20 mg/kg, ip for 4 weeks administered for 5 days consecutively and 2 days without treatment on every week by H and E staining based analysis; format: organism-based; conditions: in vivo, 672 h
[8] = tested on: PANC-1; assay: Induction of apoptosis in human PANC-1 cells assessed as late apoptotic cells at 0.25 uM incubated for 48 hrs by Annexin V-FITC/PI staining based flow cytometry (reference value: 3.87 %); format: functional
[9] = tested on: PANC-1; assay: Induction of apoptosis in human PANC-1 cells assessed as viable cells at 0.5 uM incubated for 48 hrs by Annexin V-FITC/PI staining based flow cytometry (reference value: 91.64 %); format: functional; conditions: read-out: Activity
[10] = tested on: PANC-1; assay: Antitumor activity against human PANC-1 cells xenografted in BALB/c mouse assessed as inhibition of tumor volume at 20 mg/kg, ip for 4 weeks administered for 5 days consecutively and 2 days without treatment on every week in presence of OL; format: functional, organism-based
[11] = tested on: PANC-1; assay: Induction of cell cycle arrest in human PANC-1 cells assessed as accumulation at S phase at 1 uM incubated for 24 hrs by PI staining based flow cytometry (reference value: 38.94 %); format: functional
[12] = tested on: PANC-1; assay: Induction of apoptosis in human PANC-1 cells assessed as viable cells at 0.12 uM incubated for 48 hrs by Annexin V-FITC/PI staining based flow cytometry (reference value: 91.64 %); format: functional; conditions: read-out: Activity
[13] = tested on: PANC-1; assay: Induction of cell cycle arrest in human PANC-1 cells assessed as accumulation at G2/M phase at 1 uM incubated for 24 hrs in presence of OL by PI staining based flow cytometry; format: functional
[14] = Toxicity in BALB/c mouse xenografted with human PANC-1 cells assessed as pathological changes in liver at 20 mg/kg, ip for 4 weeks administered for 5 days consecutively and 2 days without treatment on every week in presence of OL by H and E staining based analysis; format: organism-based; conditions: in vivo, 672 h
[15] = tested on: PANC-1; assay: Induction of cell cycle arrest in human PANC-1 cells assessed as accumulation at G2 phase at 0.25 uM incubated for 24 hrs by PI staining based flow cytometry (reference value: 9.36 %); format: functional
[16] = Toxicity in BALB/c mouse xenografted with human PANC-1 cells assessed as pathological changes in heart at 20 mg/kg, ip for 4 weeks administered for 5 days consecutively and 2 days without treatment on every week in presence of OL by H and E staining based analysis; format: organism-based; conditions: in vivo, 672 h
[17] = tested on: PANC-1; assay: Induction of apoptosis in human PANC-1 cells assessed as late apoptotic cells at 1 uM incubated for 48 hrs in presence of OL by Annexin V-FITC/PI staining based flow cytometry (reference value: 3.87 %); format: functional
[18] = tested on: PANC-1; assay: Induction of apoptosis in human PANC-1 cells assessed as necrotic cells at 0.5 uM incubated for 48 hrs by Annexin V-FITC/PI staining based flow cytometry (reference value: 3.09 %); format: functional
[19] = tested on: PANC-1; assay: Synergistic antiproliferative activity against human PANC-1 cells expressing wild-type BRCA assessed as combination index at 2:1 ratio of compound:JQ1 incubated for 5 days by CCK8 assay; format: functional; conditions: time 5 day

**Q.** For O=C1CCC(N2C(=O)c3cccc(NC(=O)CNCCCCCCCCCCC(=O)N4CCN(C(=O)c5cc(Cc6n[nH]c(=O)c7ccccc67)ccc5F)CC4)c3C2=O)C(=O)N1 (centres undefined), which Activity [1] is on record?
**A.** Its Activity is “Active”.

**Q.** What about the Emax [2] of the same compound?
**A.** Its Emax is greater than 92%.

**Q.** For Cc1sc2c(c1C)C(c1ccc(Cl)cc1)=N[C@@H](CC(=O)OC(C)(C)C)c1nnc(C)n1-2, which viability at 1 µM [3] is on record?
**A.** Its viability at 1 µM is 80.3%.

**Q.** And the Activity [4]?
**A.** Its Activity is “Non-toxic”.

**Q.** What about the Activity [5] of the same compound?
**A.** Its Activity is “Toxic”.

**Q.** And the Activity [6]?
**A.** Its Activity is “Active”.

**Q.** What about the Activity [7] of the same compound?
**A.** The Activity was “Non-toxic”.

**Q.** What about the Activity [8] of the same compound?
**A.** Its Activity is 4.07%.

**Q.** What about the viability at 0.5 µM [9] of the same compound?
**A.** The viability at 0.5 µM was 82.8%.

**Q.** What about the inhibition [10] of the same compound?
**A.** Its inhibition is “Active”.

**Q.** What about the Activity [11] of the same compound?
**A.** The Activity was 26.24%.

**Q.** What about the viability at 0.12 µM [12] of the same compound?
**A.** The viability at 0.12 µM was 90.2%.

**Q.** What about the Activity [13] of the same compound?
**A.** Its Activity is “Active; Only A Slight Increase Observed”.

**Q.** What about the Activity [14] of the same compound?
**A.** Its Activity is “Non-toxic”.

**Q.** And the Activity [15]?
**A.** The Activity was 12.15%.

**Q.** What about the Activity [16] of the same compound?
**A.** Its Activity is “Non-toxic”.

**Q.** What about the Activity [17] of the same compound?
**A.** The Activity was 21.52%.

**Q.** What about the Activity [18] of the same compound?
**A.** The Activity was 3.56%.

**Q.** With O=C(c1cc(Cc2n[nH]c(=O)c3ccccc23)ccc1F)N1CCN(C(=O)C2CC2)CC1 [OLAPARIB] as the compound, how does the CI [19] read?
**A.** Its CI is less than 1.
